Laboratory results from US6841657B2, “Inhibitors of HIV membrane fusion” (priority 1998, dated 2005).
Read-outs that look alike come from different tables or passages of the source. Positions of bridges follow the written chain, without caps; N, C: chain ends. Non-standard residues stand in square brackets, D forms with d.

What was measured:
[1] = test system: recombinant luciferase-expressing HIV-1; format: cell-based; conditions: for IC50: recombinant luciferase-expressing HIV-1, mean ± standard error, triplicate, read-out: IC50 viral entry
Procedure: The potency of C34 peptides in inhibiting viral infection and the HIV-1 infection inhibitory activity of the D-peptides were assayed using recombinant luciferase-expressing HIV-1 (Chen, B. K. et al., J. Virol., 68:654 (1994); Malashkevich, V. N., et al., Proc. Natl. Acad. Sci., USA, 95:9134 (1998)).
(§1) The apparent melting temperatures (Tm) were estimated from the thermal dependence of the CD signal at 222 nm. Inhibition of viral entry was measured in a cell-culture infection assay using recombinant luciferase-expressing HIV-1. Inhibition of cell-cell fusion was measured in a syncytium assay. The means and standard errors are from triplicate trials.

[2] = test system: syncytia formation between Chinese hamster ovary cell expressing HXB2 envelope and HeLa-CD4-LTR-Beta-gal cells
Procedure: In each instance, a blocking group (e.g., an acetyl group) was present at the N terminus and a CONH2 (amide) was present at the C-terminus.
Inhibition of cell/cell fusion (i.e., syncytia formation) was assayed by co-culturing Chinese hamster ovary cell expressing HXB2 envelope (K. Kozarsky, et al., J. Acquir. Immune. Defic. Syndr., 2:163 (1989) and the HeLa-CD4-LTR-Beta-gal cells (M. Emerman, NIH AIDS Reagent program) in the presence of varying concentration of peptide. When mixed, these cells form syncytia, or multi-nucleated cells, which express β-galactosidase. Approximately twenty hours after co-culturing the cells, the monolayers were stained with 5-bromo-4-chloro-3-indolyl-β-D-galactoside to visualize the syncytia. The syncytia are visualized with a microscope and counted manually (a syncytia is scored as a fused cell containing three or more nuclei). The IC50 was calculated from fitting the data to a Langmuir equation [y=k/(1+[peptide]/IC50)+x], where y=number of syncytia and k and x are scaling constants.

[3] = target: T1, N36 peptide (Human immunodeficiency virus type 1 group M subtype B, UniProt P04578); format: physicochemical, HIV-1; conditions: for Tm (apparent melting temperature) of N36/C34 complex: C34 peptide 10 μM + N36 10 μM, phosphate-buffered saline pH 7.0, CD signal at 222 nm; for mean residue ellipticity [θ]222 of N36/C34 complex: CD at 222 nm, 0° C., PBS pH 7.0
T1 construct: made in house; host or cells: chemical peptide synthesis
Procedure: CD measurements were performed in phosphate-buffered saline (50 mM sodium phosphate, 150 mM NaCl, pH 7.0) with an Aviv Model 62DS spectrometer as previously described (M. Lu, S. C. Blacklow, P. S. Kim, Nat. Struct. Biol., 2:1075 (1995)). The apparent melting temperature of each complex was estimated from the maximum of the first derivative of [θ]222 with respect to temperature.
as §1

[4] = read-out: IC50 cell fusion, syncytium assay, mean ± standard error, triplicate

T1 sequence (P04578 546-581): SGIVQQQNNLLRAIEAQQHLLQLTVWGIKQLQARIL

Row | Molecule | IC50 [1] [nM] | IC50 [2, 4] [nM] | Tm (apparent melting temperature) of N36/C34 complex [3] [°C] | mean residue ellipticity [θ]222 of N36/C34 complex [3] | inhibition of infection of cells ([1]; infectivity assay) | IC50 ([2]; read-out: IC50 syncytia formation, D-peptide, N-terminal acetyl, C-terminal amide) [nM] | IC50 for inhibition of syncytia formation relative to parent peptide without the added lysines ([2]; two additional N-terminal lysines vs parent D-peptide) | decrease in inhibitory activity relative to wildtype C34 ([1]; HIV-1 viral entry and syncytium assays) [fold] | effect of mutation on inhibitory activity of C34 ([1]; HIV-1 viral entry and syncytium assays, vs wildtype C34)
1 | Ac-WMELDREINNYTSLIHSLIEESQNQQEKNEQELL-NH2 [Trp^631→Leu] | 5.3 ± 1 | 3.2 ± 0.1 | 50 | −26.7 10^3 deg cm^2 dmol^−1 | – | – | – | – | –
2 | CC(=O)N[C@H](CCCCN)C(=O)N[C@H](CCCCN)C(=O)NCC(=O)N[C@H](C)C(=O)N[C@@H]1CSSC[C@H](C(=O)N[C@H](C)C(=O)N[C@H](C)C(N)=O)NC(=O)[C@@H](CC(C)C)NC(=O)[C@@H](Cc2c[nH]c3ccccc23)NC(=O)[C@@H](C)NC(=O)[C@@H](Cc2c[nH]c3ccccc23)NC(=O)[C@@H](CCC(=O)O)NC(=O)[C@@H](Cc2c[nH]c3ccccc23)NC(=O)CNC(=O)[C@@H](CC(C)C)NC(=O)[C@@H](CC(C)C)NC(=O)[C@@H](CCC(=O)O)NC1=O [Peptide D10pep5] | – | – | – | – | inhibit infection of cells | ~6000 | – | – | –
3 | Ac-WMEFDREINNYTSLIHSLIEESQNQQEKNEQELL-NH2 [Trp^631→Phe] | 3.61 ± 0.8 | 1.6 ± 0.05 | 59 | −26.3 10^3 deg cm^2 dmol^−1 | – | – | – | – | –
4 | Ac-WMEGDREINNYTSLIHSLIEESQNQQEKNEQELL-NH2 [Trp^631→Gly] | 38 ± 6.1 | 25 ± 3.8 | 35 | 17.1 10^3 deg cm^2 dmol^−1 | – | – | – | – | –
5 | Ac-KKKKGACELLGWEWAWLCAA-CONH2 (Ac-KKKKG[dA][dC][dE][dL][dL]G[dW][dE][dW][dA][dW][dL][dC][dA][dA]-NH2; disulfide 7-18 (inferred); not fully specified (residues 1, 2, 3, 4); printed as Ac-KKKKGACELLGWEWAWLCAA-CONH2) [Peptide D10pep5a] | – | – | – | – | – | – | approximately 2 fold | – | –
6 | CC[C@H](NC(=O)[C@H](CCC(=O)O)NC(=O)[C@H](CCSC)NC(=O)[C@H](Cc1c[nH]c2ccccc12)NC(C)=O)C(=O)N[C@@H](CC(=O)O)C(=O)N[C@@H](CCCNC(=N)N)C(=O)N[C@@H](CCC(=O)O)C(=O)N[C@H](C(=O)N[C@@H](CC(N)=O)C(=O)N[C@@H](CC(N)=O)C(=O)N[C@@H](Cc1ccc(O)cc1)C(=O)N[C@H](C(=O)N[C@@H](CO)C(=O)N[C@@H](CC(C)C)C(=O)N[C@H](C(=O)N[C@@H](Cc1c[nH]cn1)C(=O)N[C@@H](CO)C(=O)N[C@@H](CC(C)C)C(=O)N[C@H](C(=O)N[C@@H](CCC(=O)O)C(=O)N[C@@H](CCC(=O)O)C(=O)N[C@@H](CO)C(=O)N[C@@H](CCC(N)=O)C(=O)N[C@@H](CC(N)=O)C(=O)N[C@@H](CCC(N)=O)C(=O)N[C@@H](CCC(N)=O)C(=O)N[C@@H](CCC(=O)O)C(=O)N[C@@H](CCCCN)C(=O)N[C@@H](CC(N)=O)C(=O)N[C@@H](CCC(=O)O)C(=O)N[C@@H](CCC(N)=O)C(=O)N[C@@H](CCC(=O)O)C(=O)N[C@@H](CC(C)C)C(=O)N[C@@H](CC(C)C)C(N)=O)[C@@H](C)CC)[C@@H](C)CC)[C@@H](C)O)[C@@H](C)CC [Trp^631→Abu] | – | – | 43 | −23.2 10^3 deg cm^2 dmol^−1 | – | – | – | – | –
7 | Ac-WMEWDREANNYTSLIHSLIEESQNQQEKNEQELL-NH2 [Ile^635→Ala] | 4.1 ± 0.91 | 0.96 ± 0.12 | 55 | −25.9 10^3 deg cm^2 dmol^−1 | – | – | – | ~2 | –
8 | CC[C@H](C)[C@H](NC(=O)[C@H](CC(C)C)NC(=O)[C@H](CO)NC(=O)[C@H](Cc1c[nH]cn1)NC(=O)[C@@H](NC(=O)[C@H](CC(C)C)NC(=O)[C@H](CO)NC(=O)[C@@H](NC(=O)[C@H](Cc1ccc(O)cc1)NC(=O)[C@H](CC(N)=O)NC(=O)[C@H](CC(N)=O)NC(=O)[C@@H](NC(=O)[C@H](CCC(=O)O)NC(=O)[C@H](CCCNC(=N)N)NC(=O)[C@H](CC(=O)O)NC(=O)[C@H](C)NC(=O)[C@H](CCC(=O)O)NC(=O)[C@H](CCSC)NC(=O)[C@H](Cc1c[nH]c2ccccc12)NC(C)=O)[C@@H](C)CC)[C@@H](C)O)[C@@H](C)CC)C(=O)N[C@@H](CCC(=O)O)C(=O)N[C@@H](CCC(=O)O)C(=O)N[C@@H](CO)C(=O)N[C@@H](CCC(N)=O)C(=O)N[C@@H](CC(N)=O)C(=O)N[C@@H](CCC(N)=O)C(=O)N[C@@H](CCC(N)=O)C(=O)N[C@@H](CCC(=O)O)C(=O)N[C@@H](CCCCN)C(=O)N[C@@H](CC(N)=O)C(=O)N[C@@H](CCC(=O)O)C(=O)N[C@@H](CCC(N)=O)C(=O)N[C@@H](CCC(=O)O)C(=O)N[C@@H](CC(C)C)C(=O)N[C@@H](CC(C)C)C(N)=O [Trp^631→Ala] | 40 ± 4.3 | – | 37 | −24.9 10^3 deg cm^2 dmol^−1 | – | – | – | – | –
9 | Ac-WMEWDAEINNYTSLIHSLIEESQNQQEKNEQELL-NH2 [Arg^633→Ala] | 2.6 ± 0.89 | 0.76 ± 0.07 | 65 | −30.7 10^3 deg cm^2 dmol^−1 | – | – | – | – | little effect
10 | Ac-WMEVDREINNYTSLIHSLIEESQNQQEKNEQELL-NH2 [Trp^631→Val] | 13 ± 12.8 | 4.5 ± 0.09 | 43 | −23.9 10^3 deg cm^2 dmol^−1 | – | – | – | – | –
